From patent publication US9695155B2, “Herbicidal substituted pyrimidinyloxy benzene compounds” (E. I. DU PONT DE NEMOURS AND COMPANY, priority 2013, dated 2017)

How the values were obtained:
[1] = tested on: morningglory; experiment: Test C postemergence; type: in vivo, Ipomoea coccinea; details: for Plant response rating, Morningglory: scale 0 to 100 (0 no effect, 100 complete control)
In short: (§1)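 Rated visually on 0–100 (100 = complete control) after 13–15 days under glass. Treatments went onto freshly seeded loam/sand soil or onto emerged plants at the 1- to 4-leaf stage, using a surfactant-containing solvent formulation.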

[2] = tested on: Heteranthera limosa; experiment: Test B flooded paddy test; type: in vivo; details: Flood, 250 g ai/ha; 0 to 100 scale where 0 is no effect and 100 is complete control
In short: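 Post-emergence paddy-water application at the 2-leaf stage, with 3 cm flood kept for the whole test. Response was judged visually relative to controls after 13 to 15 greenhouse days, 0 indicating no effect and 100 complete control.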

[3] = tested on: pigweed; experiment: Test C postemergence; type: in vivo, Amaranthus retroflexus; details: for Plant response rating, Pigweed: scale 0 to 100 (0 no effect, 100 complete control)
In short: as §1

[4] = tested on: corn; experiment: Test C postemergence; type: in vivo, Zea mays; details: for Plant response rating, Corn: scale 0 to 100 (0 no effect, 100 complete control)
In short: as §1

[5] = tested on: corn; experiment: Test A postemergence; type: in vivo, Zea mays; details: 1000 g ai/ha, 0 to 100 scale, 0 no effect, 100 complete control
In short: (§2)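 Greenhouse pot test, loam/sand soil. Formulation: non-phytotoxic solvent mix plus surfactant. Pre: directed spray onto soil after sowing. Post: plants at 1–2 leaf, 2–10 cm. Rated visually vs untreated controls at ~10 d, 0 (no effect) to 100 (complete control).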

[6] = tested on: barnyardgrass; experiment: Test A postemergence; type: in vivo, Echinochloa crus-galli; details: 1000 g ai/ha, 0 to 100 scale, 0 no effect, 100 complete control
In short: as §2

[7] = tested on: oilseed rape; experiment: Test C postemergence; type: in vivo, Brassica napus; details: for Plant response rating, Oilseed Rape: scale 0 to 100 (0 no effect, 100 complete control)
In short: as §1

[8] = tested on: velvetleaf; experiment: Test C postemergence; type: in vivo, Abutilon theophrasti; details: for Plant response rating, Velvetleaf: scale 0 to 100 (0 no effect, 100 complete control)
In short: as §1

[9] = tested on: waterhemp; experiment: Test C postemergence; type: in vivo, Amaranthus rudis; details: for Plant response rating, Waterhemp: scale 0 to 100 (0 no effect, 100 complete control)
In short: as §1

[10] = tested on: giant foxtail; experiment: Test A postemergence; type: in vivo, Setaria faberii; details: 1000 g ai/ha, 0 to 100 scale, 0 no effect, 100 complete control
In short: as §2

[11] = tested on: giant foxtail; experiment: Test C postemergence; type: in vivo, Setaria faberii; details: for Plant response rating, Foxtail, Giant: scale 0 to 100 (0 no effect, 100 complete control)
In short: as §1

[12] = tested on: johnsongrass; experiment: Test C postemergence; type: in vivo, Sorghum halepense; details: for Plant response rating, Johnsongrass: scale 0 to 100 (0 no effect, 100 complete control)
In short: as §1

[13] = 16 g ai/ha, postemergence, 0 is no effect, 100 is complete control
[14] = 125 g ai/ha, postemergence, visual rating

SMILES: FCc1cn(-c2ccccc2Oc2ncc(Cl)cn2)nn1 [Compound 123]
- Plant response rating (0 to 100), Morningglory [1, 13]: 5
- Plant response rating, Morningglory [1, 14]: 75
- Plant response rating, Morningglory ([1]; Postemergence, 62 g ai/ha): 55
- Plant response rating, Ducksalad [2]: 80
- Plant response rating (0 to 100), Pigweed [3, 13]: 70
- Plant response rating, Pigweed [3, 14]: 85
- Plant response rating, Pigweed ([3]; Postemergence, 62 g ai/ha): 85
- Plant response rating (0 to 100), Corn [4, 13]: 0
- Plant response rating, Corn [4, 14]: 5
- Plant response rating, Corn ([4]; Postemergence, 62 g ai/ha): 5
- Plant response rating, Corn [5]: 70
- Plant response rating, Barnyardgrass [6]: 100
- Plant response rating (0 to 100), Oilseed Rape [7, 13]: 30
- Plant response rating, Oilseed Rape [7, 14]: 70
- Plant response rating, Oilseed Rape ([7]; Postemergence, 62 g ai/ha): 60
- Plant response rating (0 to 100), Velvetleaf [8, 13]: 60
- Plant response rating, Velvetleaf [8, 14]: 100
- Plant response rating, Velvetleaf ([8]; Postemergence, 62 g ai/ha): 80
- Plant response rating (0 to 100), Waterhemp [9, 13]: 25
- Plant response rating, Waterhemp [9, 14]: 80
- Plant response rating, Waterhemp ([9]; Postemergence, 62 g ai/ha): 80
- Plant response rating, Foxtail, Giant [10]: 90
- Plant response rating (0 to 100), Foxtail, Giant [11, 13]: 0
- Plant response rating, Foxtail, Giant [11, 14]: 20
- Plant response rating, Foxtail, Giant ([11]; Postemergence, 62 g ai/ha): 20
- Plant response rating (0 to 100), Johnsongrass [12, 13]: 10
- Plant response rating, Johnsongrass [12, 14]: 10
- Plant response rating, Johnsongrass ([12]; Postemergence, 62 g ai/ha): 10
